# Measurements: PubChem BioAssay (NCI)
#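 Step 1: Grow cells in 96-well plates. Step 2: Expose to compound for 48 hours at 5 concentrations. Step 3: Interpolate endpoints linearly; if unreached, use highest concentration. GI50 marks 50% less growth. At the TGI there is no net growth.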
# Key:
# Experiment in all cases: growth of human tumour cells (NCI), 48 h
# 786-0 renal = test system: 786-0 renal
# A498 renal = test system: A498 renal
# A549 NSCLC = test system: A549 NSCLC
# ACHN renal = test system: ACHN renal
# BT-549 breast = test system: BT-549 breast
# CAKI-1 renal = test system: CAKI-1 renal
# CCRF-CEM leukemia = test system: CCRF-CEM leukemia
# COLO 205 colon = test system: COLO 205 colon
# DU-145 prostate = test system: DU-145 prostate
# EKVX NSCLC = test system: EKVX NSCLC
# HCC-2998 colon = test system: HCC-2998 colon
# HCT-116 colon = test system: HCT-116 colon
# HCT-15 colon = test system: HCT-15 colon
# HL-60(TB) leukemia = test system: HL-60(TB) leukemia
# HOP-62 NSCLC = test system: HOP-62 NSCLC
# HOP-92 NSCLC = test system: HOP-92 NSCLC
# HS 578T breast = test system: HS 578T breast
# HT29 colon = test system: HT29 colon
# IGROV1 ovarian = test system: IGROV1 ovarian
# K-562 leukemia = test system: K-562 leukemia
# KM12 colon = test system: KM12 colon
# LOX IMVI melanoma = test system: LOX IMVI melanoma
# M14 melanoma = test system: M14 melanoma
# MCF7 breast = test system: MCF7 breast
# MDA-MB-231 breast = test system: MDA-MB-231 breast
# MDA-MB-435 = test system: MDA-MB-435
# MOLT-4 leukemia = test system: MOLT-4 leukemia
# NCI-H226 lung = test system: NCI-H226 lung
# NCI-H460 lung = test system: NCI-H460 lung
# NCI-H522 lung = test system: NCI-H522 lung
# NCI/ADR-RES ovarian = test system: NCI/ADR-RES ovarian
# OVCAR-3 ovarian = test system: OVCAR-3 ovarian
# OVCAR-4 ovarian = test system: OVCAR-4 ovarian
# OVCAR-5 ovarian = test system: OVCAR-5 ovarian
# OVCAR-8 ovarian = test system: OVCAR-8 ovarian
# PC-3 prostate = test system: PC-3 prostate
# RPMI-8226 leukemia = test system: RPMI-8226 leukemia
# RXF 393 renal = test system: RXF 393 renal
# SF-268 CNS = test system: SF-268 CNS
# SF-295 CNS = test system: SF-295 CNS
# SF-539 CNS = test system: SF-539 CNS
# SK-MEL-2 melanoma = test system: SK-MEL-2 melanoma
# SK-MEL-28 melanoma = test system: SK-MEL-28 melanoma
# SK-MEL-5 melanoma = test system: SK-MEL-5 melanoma
# SK-OV-3 ovarian = test system: SK-OV-3 ovarian
# SN12C renal = test system: SN12C renal
# SNB-19 CNS = test system: SNB-19 CNS
# SNB-75 CNS = test system: SNB-75 CNS
# SR leukemia = test system: SR leukemia
# SW-620 colon = test system: SW-620 colon
# T-47D breast = test system: T-47D breast
# TK-10 renal = test system: TK-10 renal
# U251 CNS = test system: U251 CNS
# UACC-257 melanoma = test system: UACC-257 melanoma
# UACC-62 melanoma = test system: UACC-62 melanoma
# UO-31 renal = test system: UO-31 renal
# NCI-H23 lung = test system: NCI-H23 lung
smiles,measurement,setting,value
Cc1ccc(S(=O)(=O)NC2=NCCN2C(=S)SN2CCn3c2nsc3=S)cc1,GI50,786-0 renal,19.1 µM
same,TGI,786-0 renal,44.4 µM
same,GI50,A498 renal,28.6 µM
same,TGI,A498 renal,68.7 µM
same,GI50,A549 NSCLC,30.4 µM
same,TGI,A549 NSCLC,90.2 µM
same,GI50,ACHN renal,6.56 µM
same,TGI,ACHN renal,19.6 µM
same,GI50,BT-549 breast,23.4 µM
same,TGI,BT-549 breast,55.8 µM
same,GI50,CAKI-1 renal,3.47 µM
same,TGI,CAKI-1 renal,14.6 µM
same,GI50,CCRF-CEM leukemia,14 µM
same,TGI,CCRF-CEM leukemia,51.9 µM
same,GI50,COLO 205 colon,6.62 µM
same,TGI,COLO 205 colon,21.2 µM
same,GI50,DU-145 prostate,26.4 µM
same,TGI,DU-145 prostate,> 100 µM
same,GI50,EKVX NSCLC,27.7 µM
same,TGI,EKVX NSCLC,> 100 µM
same,GI50,HCC-2998 colon,21 µM
same,TGI,HCC-2998 colon,50.6 µM
same,GI50,HCT-116 colon,13.7 µM
same,TGI,HCT-116 colon,28.8 µM
same,GI50,HCT-15 colon,15.1 µM
same,TGI,HCT-15 colon,31.7 µM
same,GI50,HL-60(TB) leukemia,11.2 µM
same,TGI,HL-60(TB) leukemia,55.6 µM
same,GI50,HOP-62 NSCLC,22.4 µM
same,TGI,HOP-62 NSCLC,57.5 µM
same,GI50,HOP-92 NSCLC,24.7 µM
same,TGI,HOP-92 NSCLC,> 100 µM
same,GI50,HS 578T breast,31.4 µM
same,TGI,HS 578T breast,> 100 µM
same,GI50,HT29 colon,29.9 µM
same,TGI,HT29 colon,97.5 µM
same,GI50,IGROV1 ovarian,14.1 µM
same,TGI,IGROV1 ovarian,34.6 µM
same,GI50,K-562 leukemia,14.8 µM
same,TGI,K-562 leukemia,42.4 µM
same,GI50,KM12 colon,16.6 µM
same,TGI,KM12 colon,32.7 µM
same,GI50,LOX IMVI melanoma,1.92 µM
same,TGI,LOX IMVI melanoma,4.25 µM
same,GI50,M14 melanoma,15.2 µM
same,TGI,M14 melanoma,32.1 µM
same,GI50,MCF7 breast,32.5 µM
same,TGI,MCF7 breast,> 100 µM
same,GI50,MDA-MB-231 breast,15.1 µM
same,TGI,MDA-MB-231 breast,38 µM
same,GI50,MDA-MB-435,17.3 µM
same,TGI,MDA-MB-435,41.8 µM
same,GI50,MOLT-4 leukemia,20.6 µM
same,TGI,MOLT-4 leukemia,> 100 µM
same,GI50,NCI-H226 lung,19.9 µM
same,TGI,NCI-H226 lung,50.6 µM
same,GI50,NCI-H460 lung,31 µM
same,TGI,NCI-H460 lung,> 100 µM
same,GI50,NCI-H522 lung,5.01 µM
same,TGI,NCI-H522 lung,18.8 µM
same,GI50,NCI/ADR-RES ovarian,31.8 µM
same,TGI,NCI/ADR-RES ovarian,> 100 µM
same,GI50,OVCAR-3 ovarian,10.5 µM
same,TGI,OVCAR-3 ovarian,27.9 µM
same,GI50,OVCAR-4 ovarian,14 µM
same,TGI,OVCAR-4 ovarian,28.2 µM
same,GI50,OVCAR-5 ovarian,20.1 µM
same,TGI,OVCAR-5 ovarian,40.8 µM
same,GI50,OVCAR-8 ovarian,24.3 µM
same,TGI,OVCAR-8 ovarian,72.1 µM
same,GI50,PC-3 prostate,17.2 µM
same,TGI,PC-3 prostate,51.7 µM
same,GI50,RPMI-8226 leukemia,16.7 µM
same,TGI,RPMI-8226 leukemia,73.2 µM
same,GI50,RXF 393 renal,8.17 µM
same,TGI,RXF 393 renal,20.9 µM
same,GI50,SF-268 CNS,32.4 µM
same,TGI,SF-268 CNS,87.2 µM
same,GI50,SF-295 CNS,18.2 µM
same,TGI,SF-295 CNS,50.8 µM
same,GI50,SF-539 CNS,22 µM
same,TGI,SF-539 CNS,52.7 µM
same,GI50,SK-MEL-2 melanoma,28.6 µM
same,TGI,SK-MEL-2 melanoma,89.2 µM
same,GI50,SK-MEL-28 melanoma,17.2 µM
same,TGI,SK-MEL-28 melanoma,32.7 µM
same,GI50,SK-MEL-5 melanoma,21.8 µM
same,TGI,SK-MEL-5 melanoma,50.3 µM
same,GI50,SK-OV-3 ovarian,0.116 µM
same,TGI,SK-OV-3 ovarian,13.6 µM
same,GI50,SN12C renal,19.4 µM
same,TGI,SN12C renal,46.9 µM
same,GI50,SNB-19 CNS,28.6 µM
same,TGI,SNB-19 CNS,83.1 µM
same,GI50,SNB-75 CNS,24.7 µM
same,TGI,SNB-75 CNS,52.9 µM
same,GI50,SR leukemia,7.29 µM
same,TGI,SR leukemia,36.6 µM
same,GI50,SW-620 colon,14.1 µM
same,TGI,SW-620 colon,40.7 µM
same,GI50,T-47D breast,11.3 µM
same,TGI,T-47D breast,26.2 µM
same,GI50,TK-10 renal,11.1 µM
same,TGI,TK-10 renal,24.7 µM
same,GI50,U251 CNS,19.1 µM
same,TGI,U251 CNS,39 µM
same,GI50,UACC-257 melanoma,19 µM
same,TGI,UACC-257 melanoma,43.4 µM
same,GI50,UACC-62 melanoma,15.1 µM
same,TGI,UACC-62 melanoma,32.3 µM
same,GI50,UO-31 renal,2.93 µM
same,TGI,UO-31 renal,11 µM
CC1=NN(c2nc(N)nc(COCc3nc(N)nc(N4N=C(C)CC4(C)C)n3)n2)C(C)(C)C1,TGI,786-0 renal,> 100 µM
same,TGI,A498 renal,> 100 µM
same,TGI,A549 NSCLC,> 100 µM
same,TGI,ACHN renal,> 100 µM
same,TGI,BT-549 breast,> 100 µM
same,TGI,CAKI-1 renal,> 100 µM
same,TGI,CCRF-CEM leukemia,> 100 µM
same,TGI,COLO 205 colon,> 100 µM
same,TGI,DU-145 prostate,> 100 µM
same,TGI,EKVX NSCLC,> 100 µM
same,TGI,HCC-2998 colon,> 100 µM
same,TGI,HCT-116 colon,> 100 µM
same,TGI,HCT-15 colon,> 100 µM
same,TGI,HL-60(TB) leukemia,> 100 µM
same,TGI,HOP-62 NSCLC,> 100 µM
same,TGI,HOP-92 NSCLC,> 100 µM
same,TGI,HS 578T breast,> 100 µM
same,TGI,HT29 colon,> 100 µM
same,TGI,IGROV1 ovarian,> 100 µM
same,TGI,K-562 leukemia,> 100 µM
same,TGI,KM12 colon,> 100 µM
same,TGI,LOX IMVI melanoma,> 100 µM
same,TGI,M14 melanoma,> 100 µM
same,TGI,MCF7 breast,> 100 µM
same,TGI,MDA-MB-231 breast,> 100 µM
same,TGI,MDA-MB-435,> 100 µM
same,TGI,MOLT-4 leukemia,> 100 µM
same,TGI,NCI-H226 lung,> 100 µM
same,TGI,NCI-H23 lung,> 100 µM
same,TGI,NCI-H460 lung,> 100 µM
same,TGI,NCI-H522 lung,> 100 µM
same,TGI,NCI/ADR-RES ovarian,> 100 µM
same,TGI,OVCAR-3 ovarian,> 100 µM
same,TGI,OVCAR-4 ovarian,> 100 µM
same,TGI,OVCAR-5 ovarian,> 100 µM
same,TGI,OVCAR-8 ovarian,> 100 µM
same,TGI,PC-3 prostate,> 100 µM
same,TGI,RPMI-8226 leukemia,> 100 µM
same,TGI,RXF 393 renal,> 100 µM
same,TGI,SF-268 CNS,> 100 µM
same,TGI,SF-295 CNS,> 100 µM
same,TGI,SF-539 CNS,> 100 µM
same,TGI,SK-MEL-2 melanoma,> 100 µM
same,TGI,SK-MEL-28 melanoma,> 100 µM
same,TGI,SK-MEL-5 melanoma,> 100 µM
same,TGI,SK-OV-3 ovarian,> 100 µM
same,TGI,SN12C renal,> 100 µM
same,TGI,SNB-19 CNS,> 100 µM
same,TGI,SNB-75 CNS,> 100 µM
same,TGI,SR leukemia,> 100 µM
same,TGI,SW-620 colon,> 100 µM
same,TGI,T-47D breast,> 100 µM
same,TGI,TK-10 renal,> 100 µM
same,TGI,U251 CNS,> 100 µM
same,TGI,UACC-257 melanoma,> 100 µM
same,TGI,UACC-62 melanoma,> 100 µM
same,TGI,UO-31 renal,> 100 µM
